In US9718812B2, “Substituted thiazole or oxazole P2X7 receptor antagonists” (Axxam S.P.A., priority 2014, dated 2017):

Legend:
P2X7 receptor = P2X7 receptor (Homo sapiens (Human), UniProt Q99572); test: YO-PRO-1 Uptake Assay (large pore form, Bz-ATP stimulated); type: cell-based; conditions: HEK-293 cells stably transfected with P2X7 receptor; Bz-ATP EC80 (30 μM); 5 μM YO-PRO-1
From the text: YO-PRO®-1 is a fluorescent DNA-binding dye with a MW of 374 Da (Molecular Probes®, cat. Y3603). This method is based upon the presumed ability of YO-PRO®-1 to enter through the dilated or “large pore form” of P2X7 receptor and to bind to intracellular DNA whereupon it increases many fold its fluorescence intensity. The dye has an absorption spectrum compatible with excitation at 488 nm by argon laser sources and its emission wavelength is in the range of 515-575 nm. The aim of this assay was to validate the interaction of antagonists with P2X7 receptor using an alternative readout to Ca^2+-sensitive fluorescent dyes.
HEK-293 cells stably transfected with P2X7 receptor were seeded overnight in growth medium at 20,000 cells/well in 384-well plate. 24 hours later, the medium was removed, the cells were washed with Low Divalent Cation Assay Buffer (0.3 mM Ca2+ and 0 mM Mg2+) and then pre-loaded with 20 μL/w of 5 μM YO-PRO®-1 dye. […] fluorescence measurement immediately started. Then, 10 μL/w of test compounds and reference antagonist A438079 at 3×-concentration were injected with the […] and the kinetic response over a period of five minutes was monitored. A second injection of 10 μL/w of 3× Bz-ATP EC80 (30 μM) was performed with the […] and the signal of the emitted fluorescence was recorded for additional 60 minutes. All the experiment was carried out with a Low Divalent Cation Assay Buffer (0.3 mM Ca^2+ and 0 mM Mg^2+).
The effect of the test compounds was measured as percent inhibition vs the reference antagonist and IC50 values were calculated accordingly.

P2X7 receptor (hP2X7) = P2X7 receptor (hP2X7) (Homo sapiens (Human), UniProt Q99572); test: Screen Quest Fluo-8 No Wash Calcium Assay (Bz-ATP-induced Ca2+ influx, FLIPR TETRA); type: cell-based; conditions: HEK-293 cells stably transfected with P2X7 receptor, Fluo-8 calcium, Low Divalent Cation Assay Buffer
Sequence of P2X7 receptor (hP2X7) (Q99572 whole entry): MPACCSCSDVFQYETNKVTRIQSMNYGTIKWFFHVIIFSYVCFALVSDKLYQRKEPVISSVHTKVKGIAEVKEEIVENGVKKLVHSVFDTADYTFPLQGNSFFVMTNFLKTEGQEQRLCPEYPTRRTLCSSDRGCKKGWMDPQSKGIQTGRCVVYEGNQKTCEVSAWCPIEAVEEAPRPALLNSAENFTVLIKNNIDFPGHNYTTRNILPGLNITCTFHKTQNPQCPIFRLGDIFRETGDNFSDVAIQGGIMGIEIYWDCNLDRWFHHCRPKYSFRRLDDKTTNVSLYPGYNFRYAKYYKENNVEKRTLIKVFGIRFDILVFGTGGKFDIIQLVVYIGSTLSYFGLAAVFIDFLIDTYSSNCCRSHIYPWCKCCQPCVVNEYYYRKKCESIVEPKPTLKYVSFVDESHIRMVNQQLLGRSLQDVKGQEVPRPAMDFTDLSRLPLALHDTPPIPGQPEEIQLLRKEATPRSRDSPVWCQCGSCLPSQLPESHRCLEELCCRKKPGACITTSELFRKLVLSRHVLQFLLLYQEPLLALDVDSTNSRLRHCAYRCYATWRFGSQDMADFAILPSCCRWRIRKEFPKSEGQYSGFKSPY
Method: Extracellular binding of Bz-ATP to P2X7 receptor opens the channel and allows Ca2+ influx into the cells. This Ca2+ entry was measured in HEK-293 cells stably transfected with P2X7 receptor using Screen Quest™ Fluo-8 No Wash Calcium Assay Kit (AAt Bioquest®, cat. 36316). Once inside the cell, the lipophilic blocking groups of Fluo-8 are cleaved by non-specific cell esterases, resulting in a negatively-charged fluorescent dye that stays inside cells. Its fluorescence increases upon binding to calcium. When HEK-293/P2X7 cells are stimulated with Bz-ATP, Ca2+ enters the cells and the fluorescence of Fluo-8 NW increases. The dye has an absorption spectrum compatible with excitation at 488 nm by argon laser sources and its emission wavelength is in the range of 515-575 nm.
HEK-293 cells stably transfected with P2X7 receptor were seeded overnight in growth medium at 10,000 to 20,000 cells/well in 384-well plate. 24 hours later, the medium was removed and the cells were pre-loaded at RT for 1 hour with 20 μL/w of Fluo-8 NW. Then 10 μL/w of test compounds and reference antagonist A438079 at 3×-concentration were injected with the […] and the kinetic response over a period of five minutes was monitored.

Sequence of P2X7 receptor (Q99572 whole entry): as above

IC50 (P2X7 receptor)	IC50 (P2X7 receptor (hP2X7))	SMILES
82 nM	54 nM	O=C(NCC(c1scnc1C(F)F)N1CCC(F)(F)CC1)c1c(F)cccc1Cl (centres unmarked) [Compound 95, 2-chloro-N-{2-[4-(difluoromethyl)-1,3-thiazol-5-yl]-2-(4,4-difluoropiperidin-1-yl)ethyl}-6-fluorobenzamide]
44 nM	55 nM	Cc1cccc(C)c1C(=O)NCC(c1scnc1C)N1CCC(F)(F)CC1 (centres unmarked) [Compound 32, N-[2-(4,4-difluoropiperidin-1-yl)-2-(4-methyl-1,3-thiazol-5-yl)ethyl]-2,6-dimethylbenzamide]
48 nM	62 nM	CCc1ncc(C(CNC(=O)c2c(F)cccc2Cl)N2CCC(F)(F)CC2)s1 (centres unmarked) [Compound 85, 2-chloro-N-[2-(4,4-difluoropiperidin-1-yl)-2-(2-ethyl-1,3-thiazol-5-yl)ethyl]-6-fluorobenzamide]
72 nM	68 nM	Cc1cccc(Cl)c1C(=O)NCC(c1scnc1C)N1CCOC(c2ccc(F)cc2F)C1 (centres unmarked) [Compound 100, 2-chloro-N-{2-[2-(2,4-difluorophenyl)morpholin-4-yl]-2-(4-methyl-1,3-thiazol-5-yl)ethyl}-6-methylbenzamide]
464 nM	100 nM	O=C(NCC(c1cncs1)N1CCc2ccccc2C1)c1c(F)cccc1Cl (centres unmarked) [Compound 9, 2-chloro-N-[2-(3,4-dihydro-1H-isoquinolin-2-yl)-2-(1,3-thiazol-5-yl)-ethyl]-6-fluoro-benzamide]
53 nM	72 nM	Cc1ncsc1C(CNC(=O)c1c(F)cccc1Cl)N1CCOC(c2ccc(F)cc2F)C1 (centres unmarked) [Compound 91, 2-chloro-N-{2-[2-(2,4-difluorophenyl)morpholin-4-yl]-2-(4-methyl-1,3-thiazol-5-yl)ethyl}-6-fluorobenzamide]

The remaining lines, values behind:

SMILES	IC50 (P2X7 receptor)	IC50 (P2X7 receptor (hP2X7))
O=C(NCC(c1cnc(C2CCC2)s1)N1CCC(F)(F)CC1)c1cc(-c2ncc(F)cn2)ccc1F (centres unmarked) [Compound 106, N-[2-(2-cyclobutyl-1,3-thiazol-5-yl)-2-(4,4-difluoropiperidin-1-yl)ethyl]-2-fluoro-5-(5-fluoropyrimidin-2-yl)benzamide]	807 nM	1240 nM
O=C(NCC(c1cnc(C2CCC2)s1)N1CCC(F)(F)CC1)c1cccc2ncccc12 (centres unmarked) [Compound 105, N-[2-(2-cyclobutyl-1,3-thiazol-5-yl)-2-(4,4-difluoropiperidin-1-yl)ethyl]quinoline-5-carboxamide]	135 nM	292 nM
Cc1ncoc1C(CNC(=O)c1cc(-c2ncc(F)cn2)ccc1Cl)N1CCC(F)(F)CC1 (centres unmarked) [Compound 51, 2-chloro-N-[2-(4,4-difluoropiperidin-1-yl)-2-(4-methyl-1,3-oxazol-5-yl)ethyl]-5-(5-fluoropyrimidin-2-yl)benzamide]	71 nM	101 nM
Cc1cccc(C)c1C(=O)NCC(c1cncs1)N1CCOCC1 (centres unmarked) [Compound 11, 2,6-dimethyl-N-[2-(morpholin-4-yl)-2-(1,3-thiazol-5-yl)ethyl]benzamide]	220 nM	81 nM
Cc1ncc(C(CNC(=O)c2cc(-c3ncc(F)cn3)ccc2Cl)N2CCC(F)(F)CC2)s1 (single isomer, unassigned; (-)) [Compound 128, (−)-2-chloro-N-[2-(4,4-difluoro-piperidin-1-yl)-2-(2-methylthiazol-5-yl)ethyl]-5-(5-fluoropyrimidin-2-yl)benzamide]	24 nM	141 nM
Cc1cccc(C)c1C(=O)NCC(c1cncs1)N1CCC(OCc2ccccc2)CC1 (centres unmarked) [Compound 23, N-{2-[4-(benzyloxy)piperidin-1-yl]-2-(1,3-thiazol-5-yl)ethyl}-2,6-dimethylbenzamide]	40 nM	118 nM
Cc1cccc(C)c1C(=O)NCC(c1cnco1)N1CCc2ccccc2C1 (centres unmarked) [Compound 49, 2,6-dimethyl-N-[2-(1,3-oxazol-5-yl)-2-(1,2,3,4-tetrahydroisoquinolin-2-yl)ethyl]benzamide]	945 nM	104 nM
